This passage reports MIC and IC50 results from patent US8680087B2, “Macrocyclic amides, pharmaceutical compositions, preparation methods and uses thereof” (Yuxi Winhey Bio-Tech Co., Ltd., priority 2009, dated 2014).

Converted amounts (≈) assume the structure as drawn. Like-named read-outs stand apart in the source and are kept apart here. Some results are limits rather than exact numbers.

Common to all, as to format: cell-based
For one assay, the system named is Enterococcus faecalis. Briefly: Antibacterial activity test, standard dilution method (MIC). Conditions: 24 hr and 48 hr, trypticase soy broth, 35° C. As to the method:
(§1) The following antibacterial activity test of WH-21091 was conducted to illustrate the antibacterial activity of WH-21091. Standard dilution method was adopted, and the measurement was conducted under 35° C. After culturing for 24 hours, the minimum inhibition concentrations (MICs) of WH-21091 were obtained.

For the next assay, the system named is Escherichia coli. The description is as above. Particulars: 24 hr and 48 hr, trypticase soy broth, 35° C. As to the method: as §1
The next assay has as its system Pseudomonas aeruginosa. The description is as above. Conditions: 24 hr and 48 hr, trypticase soy broth, 35° C. As to the method:
as §1

The subject of assay [1] is S. aureus MSRA (clinical isolates of methicilllin-resistant strains). The assay is described as above. Particulars: Staphylococcus aureus. As to the method:
as §1

In assay [2] the test system is Staphylococcus epidermidis. Described as above. Particulars: 24 hr and 48 hr, trypticase soy broth, 35° C. As to the method:
as §1

In the next assay the test system is Streptococcus pyogenes. The assay is described as above. Particulars: 24 hr and 48 hr, trypticase soy broth, 35° C. As to the method: as §1
The test system of assay [3] is breast cancer MCF-7 cells. Kind of assay: In vitro antitumor activity test (method of Skehan et al.). Particulars: Homo sapiens, MCF7; MCF-7 breast cancer cells. As to the method:
(§2) Following the method described by Skehan et al. (1990), in vitro antitumor activity tests of WH-21091 on human lung cancer H460, breast cancer MCF-7 and cervix cancer Hela cells were conducted.

For the next assay, the system named is cervix cancer Hela cells. The assay is described as above. Particulars: Homo sapiens. As to the method: as §2
Assay [4] concerns human lung cancer H460 cells. The description is as above. Conditions: NCI-H460. As to the method:
as §2

One may read the MIC as the smallest concentration in the dilution series that meets the test's criterion for growth inhibition. As a reminder, the IC50 is the concentration that gives 50% inhibition.

As to `CC[C@H]1OC(=O)[C@H](C)[C@@H](O[C@H]2C[C@@](C)(OC)[C@@H](O)[C@H](C)O2)[C@H](C)[C@@H](O[C@@H]2O[C@H](C)C[C@H](N(C)C)[C@H]2O)[C@](C)(O)C[C@@H](C)C(=O)[C@H](C)[C@@H](O)[C@]1(C)O` [erythromycin, reference compound], the minimal inhibitory concentration (MIC) against Enterococcus faecalis is > 32 µg/mL; in the assay on Escherichia coli, 1 µg/mL (≈ 1.36 µM); against Pseudomonas aeruginosa, > 32 µg/mL; in assay [1], > 32 µg/mL; in [2], 0.25 µg/mL (≈ 0.341 µM); against Streptococcus pyogenes, 0.03 µg/mL (≈ 0.0409 µM).

Turning to `CC1CC(C)CC(C(O)Cc2cccc(O)c2C(=O)O)NC(=O)C(O)C(O)C(O)C1` (stereo not drawn) [WH-21091], the MIC against Enterococcus faecalis was 32 µg/mL (≈ 75.2 µM); in the assay on Escherichia coli it was 4 µg/mL (≈ 9.4 µM); against Pseudomonas aeruginosa, > 32 µg/mL; in assay [1] (S. aureus MSRA, clinical isolates of methicilllin-resistant strains, 24 hr and 48 hr, trypticase soy broth, 35° C., read-out: MIC) it was 4 µg/mL (≈ 9.4 µM); in assay [2] it was 8 µg/mL (≈ 18.8 µM); in the assay on Streptococcus pyogenes it was 4 µg/mL (≈ 9.4 µM). In addition, the IC50 in assay [3] came out at 0.81 µg/mL (≈ 1.9 µM); with cervix cancer Hela cells, 0.24 µg/mL (≈ 0.564 µM); in [4] it was 0.1 µg/mL (≈ 0.235 µM).
